Measured values reported in patent US11541050B2, “Pyrimidine derivatives for the treatment of viral infections” (JANSSEN SCIENCES IRELAND UC, priority 2011, dated 2023).

How the values were obtained:
[1] = target: T1, human TLR8 (wild type sequence) (Homo sapiens, UniProt Q9NR97); assay: TLR8 cellular NFκB-luc reporter assay, wild type TLR8; format: cell-based; design: unit not given here; details: lowest effective concentration, wild type TLR8 (compounds 1-73)
T1 construct: expressed in transfected cells; host or cells: HEK293
T1 sequence (Q9NR97 27-1041): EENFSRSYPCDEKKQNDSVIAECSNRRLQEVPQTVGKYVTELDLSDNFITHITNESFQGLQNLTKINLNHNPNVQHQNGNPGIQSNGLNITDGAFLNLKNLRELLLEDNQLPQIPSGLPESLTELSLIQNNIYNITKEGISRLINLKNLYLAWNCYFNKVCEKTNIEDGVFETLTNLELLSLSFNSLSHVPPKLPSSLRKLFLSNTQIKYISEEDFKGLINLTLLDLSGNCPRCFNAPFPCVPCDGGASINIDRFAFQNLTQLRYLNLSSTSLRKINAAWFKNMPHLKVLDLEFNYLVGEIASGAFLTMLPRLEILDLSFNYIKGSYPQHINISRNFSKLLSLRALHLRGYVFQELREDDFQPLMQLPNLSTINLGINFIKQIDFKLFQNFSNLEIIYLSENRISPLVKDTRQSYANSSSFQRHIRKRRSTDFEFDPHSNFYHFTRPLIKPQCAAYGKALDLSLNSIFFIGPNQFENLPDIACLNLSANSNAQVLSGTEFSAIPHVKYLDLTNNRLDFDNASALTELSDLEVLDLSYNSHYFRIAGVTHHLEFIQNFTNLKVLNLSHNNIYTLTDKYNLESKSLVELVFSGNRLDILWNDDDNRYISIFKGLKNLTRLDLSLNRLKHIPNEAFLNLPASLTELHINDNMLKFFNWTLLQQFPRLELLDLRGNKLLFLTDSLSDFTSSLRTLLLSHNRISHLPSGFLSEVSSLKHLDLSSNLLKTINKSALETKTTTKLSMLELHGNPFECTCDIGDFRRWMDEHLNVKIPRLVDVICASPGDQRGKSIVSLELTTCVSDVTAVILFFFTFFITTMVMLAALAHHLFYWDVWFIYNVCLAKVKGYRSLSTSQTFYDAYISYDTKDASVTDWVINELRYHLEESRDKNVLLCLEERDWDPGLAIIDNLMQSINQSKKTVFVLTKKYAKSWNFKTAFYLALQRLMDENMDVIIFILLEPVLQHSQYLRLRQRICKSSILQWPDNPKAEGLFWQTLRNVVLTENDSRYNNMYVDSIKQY
How it was run: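 First, HEK293 cells were co-transfected with TLR7 or TLR8 (native or LRR2-deletion) and NFκB-luc and cultured 48 h. Next, cells were incubated with compound for 6 h at 37 °C. Finally, luciferase was read; LEC came from dose-response curves run in quadruplicate.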

[2] = tested on: HCV replicon in Huh-7 luc/neo cells; assay: Suppression of HCV replicon replication by conditioned media from compound-treated PBMC; format: cell-based, HCV type 1 b; details: Hepatitis C virus, Huh-7; read-out: PBMC-HUH7_EC50
How it was run: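 Human PBMC (≥2 donors, RPMI + 10% human AB serum, 2×10^5 cells/well) incubated overnight with compounds; supernatant transferred onto Huh-7 luc/neo HCV 1b replicon cells. After 24 h, replication read as luciferase activity. Recombinant interferon α-2a served as standard.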

[3] = tested on: human TLR7 mutant sequence comprising a deletion in the second leucine-rich repeat; assay: TLR7 cellular NFκB-luc reporter assay, mutant TLR7 with deletion in the second leucine-rich repeat; format: cell-based; design: unit not given here; details: lowest effective concentration, TLR7 mutant with deletion in second leucine-rich repeat
How it was run: (§1)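 HEK293 cells transiently co-transfected with CMV-driven mutant TLR7 or TLR8 plasmid plus NFκB-luc reporter, cultured 48 h at 37 °C, then exposed to compound for 6 h at 37 °C, 5% CO2. Luciferase luminescence measured; dose-response curves from quadruplicates.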

[4] = tested on: human TLR8 mutant sequence comprising a deletion in the second leucine-rich repeat; assay: TLR8 cellular NFκB-luc reporter assay, mutant TLR8 with deletion in the second leucine-rich repeat; format: cell-based; design: unit not given here; details: lowest effective concentration, TLR8 mutant with deletion in second leucine-rich repeat
How it was run: as §1

SMILES	TLR8-wt_LEC [1]	EC50 [2] [nM]	TLR7-dIRR2_LEC [3]	TLR8-dIRR2_LEC [4]
CCCCNc1nc(N)ncc1OCCCc1ccc(OC)cc1 [Compound 2]	1.34	40	0.02	0.31
CCCCNc1nc(N)ncc1OCc1ccccc1C [Compound 14]	4.92	1810	0.91	0.91
CCCCNc1nc(N)ncc1OCc1ccncc1 [Compound 18]	1.87	630	0.83	0.85
CCCCNc1nc(N)ncc1OCc1cccc(C(=O)OC)c1 [Compound 23]	2.55	10800	0.26	1.45
CCCCNc1nc(N)ncc1OCc1ccc(C(=O)OC)cc1 [Compound 12]	1.49	2760	0.26	1.12
CCCCNc1nc(N)ncc1OCc1cc(-c2ccc(F)cc2)on1 [Compound 33]	1.78	1480	0.36	1.17
CCCCNc1nc(N)ncc1OCCOC [Compound 17]	2.03	710	0.34	0.67
CCCCNc1nc(N)nc(C)c1Oc1ccccc1OC [Compound 7]	5.84	3110	1.11	3.03
CCCCNc1nc(N)nc(C)c1Oc1ccccc1 [Compound 3]	4.91	10800	21.69	1.66
CCCCNc1nc(N)ncc1OCc1cccnc1 [Compound 22]	2.35	250	0.31	0.94
CCCCNc1nc(N)ncc1OCc1cn2ccccc2n1 [Compound 34]	0.83	50	0.06	0.61
CCCCNc1nc(N)ncc1OCc1ccccc1-c1ccccc1 [Compound 25]	>25	1550	0.64	>25
CCCCNc1nc(N)ncc1Oc1ccccc1 [Compound 71]	>24.59	4960	>24.59	>24.59
CCCCNc1nc(N)ncc1OCc1occc1C(=O)OCC [Compound 47]	1.87	330	0.20	0.66
CCCCNc1nc(N)ncc1OCCO [Compound 21]	2.69	3080	1.61	0.64
CCCCNc1nc(N)ncc1OCCCC [Compound 10]	8.14	1580	1.28	2.82

SMILES	TLR8-wt_LEC [1]	EC50 [2] [nM]	TLR7-dIRR2_LEC [3]	TLR8-dIRR2_LEC [4]
CCCCNc1nc(N)ncc1OCc1ccccc1Cl [Compound 15]	2.31	170	0.17	1.06
CCCCNc1nc(N)ncc1OCc1ncc(C)c(OC)c1C [Compound 6]	0.16	20	0.01	0.10
CCCCNc1nc(N)ncc1OCc1cccc(C(F)(F)F)c1 [Compound 51]	3.92	500	0.58	2.09
CCCCNc1nc(N)ncc1OCc1cc(F)c(F)cc1OC [Compound 53]	3.06	600	0.64	2.15
CCCCCCCCOc1cnc(N)nc1NCCCC [Compound 40]	>25	–	2.69	>25
CCCCNc1nc(N)ncc1OCc1ccccc1F [Compound 8]	1.88	370	0.38	0.81
CCCCNc1nc(N)ncc1OCc1cc(C)on1 [Compound 52]	3.61	260	0.63	1.65
CCCCNc1nc(N)ncc1OCc1occ(C(=O)OC)c1C(=O)OC [Compound 49]	3.72	550	0.31	2.07
CCCCNc1nc(N)ncc1OCCCO [Compound 24]	2.42	2750	1.99	1.50
C=CCCCCOc1cnc(N)nc1NCCCC [Compound 20]	10.21	1330	0.79	2.87
CCCCNc1nc(N)ncc1OCCc1ccccc1 [Compound 13]	13.18	2530	2.26	5.23
CCCCNc1nc(N)ncc1OCCN1CCOCC1 [Compound 27]	5.36	1030	0.78	0.64
CCCCNc1nc(N)ncc1OCCC(C)C [Compound 9]	19.00	9720	1.55	9.70
CCCCNc1nc(N)ncc1OCCCC#N [Compound 29]	2.86	2970	1.32	1.19
CCCCNc1nc(N)ncc1OCc1cc(C)no1 [Compound 26]	3.90	580	0.49	1.52
CCCCNc1nc(N)ncc1OCC1CC1 [Compound 39]	14.41	–	3.01	7.10
